Reference: the NIST ThermoML archive (doi:10.1021/acs.jced.7b00995)

What was measured:
[1] = xn = mol fraction of the nth substance listed; conditions: Liquid, Vibrating tube method
[2] = 313.15 K, Liquid, Vibrating tube method

CCCCCCCCCCCCCCC [pentadecane] + O=C=O
mass density [kg/m3], [1]
Conditions | x2 = 0.376 | x2 = 0.562 | x2 = 0.757
313.15 K, 6.36 kPa | – | 779.4 | –
313.15 K, 6.91 kPa | 770 | – | –
313.15 K, 8.8 kPa | – | – | 798.3
313.15 K, 11.29 kPa | – | – | 804.2
313.15 K, 13.85 kPa | – | – | 810.2
313.15 K, 20.79 kPa | 784 | 796.8 | 828.1
313.15 K, 34.67 kPa | 795.8 | 808.8 | 843.2
313.15 K, 55.49 kPa | 809 | 829 | 867.8
313.15 K, 76.31 kPa | 825.4 | 841.5 | 885.9
363.15 K, 6.94 kPa | 725.3 | – | –
363.15 K, 10.73 kPa | – | 730.3 | –
363.15 K, 17.13 kPa | – | – | 738.8
363.15 K, 20.82 kPa | 744.5 | 745.5 | 749.2
363.15 K, 34.7 kPa | 754.3 | 768.8 | 780
363.15 K, 55.52 kPa | 775.6 | 784.7 | 812.3
363.15 K, 76.34 kPa | 787 | 800.8 | 831.7
410.15 K, 13.9 kPa | – | 686.5 | –
410.15 K, 13.91 kPa | 693.8 | – | –
410.15 K, 20.85 kPa | 702.6 | 701.8 | –
410.15 K, 21.95 kPa | – | – | 682.7
410.15 K, 27.79 kPa | – | – | 702
410.15 K, 34.73 kPa | 723.3 | 724.9 | 723.5
410.15 K, 55.55 kPa | 742.3 | 749.5 | 763.8
410.15 K, 76.37 kPa | 757.3 | 769.3 | 796.1

CCCCCCCCCCCCCCC [pentadecane]
[2]
Conditions | mass density [kg/m3]
100 kPa | 752.2
6910 kPa | 757.8
20790 kPa | 766.9
34670 kPa | 776.1
55490 kPa | 787.5
76930 kPa | 797.3
